For 40 molecules, EC50 results are on record in patent publication US10221138B2, “Biaryl derivatives as GPR120 agonists” (LG CHEM, LTD., priority 2013, dated 2019).

The term EC50 denotes the midpoint of the concentration-response curve.

Each structure is given as a SMILES string. Where only a bound is given, the exact number is not on record here.

The target in the experiment is T1, hGPR120 (Homo sapiens, UniProt Q5NUL3).
T1 construct: expressed in transfected cells; host or cells: CHO-K1
T1 sequence (Q5NUL3 1-361): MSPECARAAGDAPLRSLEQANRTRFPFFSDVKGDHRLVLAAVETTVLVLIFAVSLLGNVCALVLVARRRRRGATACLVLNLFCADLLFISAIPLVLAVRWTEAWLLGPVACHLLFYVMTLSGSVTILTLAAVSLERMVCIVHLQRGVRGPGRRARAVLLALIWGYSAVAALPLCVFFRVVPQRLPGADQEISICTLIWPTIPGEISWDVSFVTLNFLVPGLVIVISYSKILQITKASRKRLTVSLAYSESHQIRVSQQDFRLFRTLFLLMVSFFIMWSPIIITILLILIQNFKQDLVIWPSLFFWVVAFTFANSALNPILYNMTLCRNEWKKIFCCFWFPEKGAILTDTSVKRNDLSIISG
The experiment can be described thus: Measurement of activity of GPR120 agonist (cell-based calcium fluorescence assay). The following applies: CHO-K1 cells expressing Ga16 and hGPR120, Calcium 5 dye fluorescence; activity class; read-out: EC50. Here is the method:
CHO-K1 cells expressing Ga16 and hGPR120 were dispensed into each well of a 96-well plate (3×10^4 cells/100 μl/well) and then incubated in 5% CO2, 37° C. incubator for 18 hours. Each well was treated with 100 μl of Calcium 5 dye (Molecular Devices) solution including 2% DMSO and then incubated in 5% CO2, 37° C. incubator for 1 hour. Serially diluted GPR120 agonists were prepared to a final concentration of 0.5% DMSO in a 96-well plate.
Fluorescence increased by the serially diluted GPR120 agonists is calculated as a relative percent (%) value based on the fluorescence represented by the treatment of 1% DMSO only. […] The calculation of measurement was carried out by using statistical software (Prizm).
Activity is denoted based on the following criteria: […]
Turning to `O=C(O)CCCOc1c(F)cc(-c2cccc(C3CCCC3)c2)cc1F` [Example 97, 4-[4-(3-cyclopentylphenyl)-2,6-difluoro-phenoxy]butanoic acid], the EC50 was below 200 nM. Turning to `O=C(O)CCCOc1c(F)cc(-c2cccc(CC3CCCC3)c2)cc1F` [Example 98, 4-[4-[3-(cyclopentylmethyl)phenyl]-2,6-difluoro-phenoxy]butanoic acid], the EC50 is 200 to 2000 nM. The result for `O=C(O)CCCOc1c(F)cc(-c2ccccc2CC2CCCC2)cc1F` [Example 99, 4-[4-[2-(cyclopentylmethyl)phenyl]-2,6-difluoro-phenoxy]butanoic acid] reads below 200 nM; that for `O=C(O)CCCOc1c(F)cc(-c2cccc(CC3CCCC3)n2)cc1F` [Example 100, 4-[4-[6-(cyclopentylmethyl)-2-pyridyl]-2,6-difluoro-phenoxy]butanoic acid], below 200 nM; that for `O=C(O)CCCOc1c(F)cc(-c2ccccc2CC2CCC2)cc1F` [Example 101, 4-[4-[2-(cyclobutylmethyl)phenyl]-2,6-difluoro-phenoxy]butanoic acid], below 200 nM.

Turning to `O=C(O)CCCOc1c(F)cc(-c2cccc(CC3CCC3)c2)cc1F` [Example 102, 4-[4-[3-(cyclobutylmethyl)phenyl]-2,6-difluoro-phenoxy]butanoic acid], the EC50 was below 200 nM. On to `O=C(O)CCCOc1c(F)cc(-c2cccc(CC3CCC3)n2)cc1F` [Example 103, 4-[4-[6-(cyclobutylmethyl)-2-pyridyl]-2,6-difluoro-phenoxy]butanoic acid], for which the EC50 is below 200 nM. Next, `O=C(O)CCCOc1c(F)cc(-c2ccccc2C2CCCC2)cc1F` [Example 104, 4-[4-(2-cyclopentylphenyl)-2,6-difluoro-phenoxy]butanoic acid]: below 200 nM; `O=C(O)CCCOc1c(F)cc(-c2cccc(C3CCCC3)n2)cc1F` [Example 105, 4-[4-(6-cyclopentyl-2-pyridyl)-2,6-difluoro-phenoxy]butanoic acid]: below 200 nM.

On to `CC(C)Cc1ncccc1-c1cc(F)c(OCCCC(=O)O)c(F)c1` [Example 106, 4-[2,6-difluoro-4-(2-isobutyl-3-pyridyl)phenoxy]butanoic acid], for which the concentration for a half-maximal effect (EC50) was 2000 to 20000 nM. Consider `O=C(O)CCCOc1c(F)cc(-c2cccnc2C2CCCC2)cc1F` [Example 107, 4-[4-(2-cyclopentyl-3-pyridyl)-2,6-difluoro-phenoxy]butanoic acid], for which the EC50 fell in the range of 200 to 2000 nM.

Consider `O=C(O)CCCOc1c(F)cc(-c2cccnc2CC2CCCC2)cc1F` [Example 108, 4-[4-[2-(cyclopentylmethyl)-3-pyridyl]-2,6-difluoro-phenoxy]butanoic acid], for which the EC50 is below 200 nM. Consider `O=C(O)CCCOc1c(F)cc(-c2cccnc2-n2cccc2)cc1F` [Example 109, 4-[2,6-difluoro-4-(2-pyrrol-1-yl-3-pyridyl)phenoxy]butanoic acid], for which the EC50 lay within 200 to 2000 nM.

Consider `Cc1cnn(-c2ncccc2-c2cc(F)c(OCCCC(=O)O)c(F)c2)c1` [Example 110, 4-[2,6-difluoro-4-[2-(4-methylpyrazol-1-yl)-3-pyridyl]phenoxy]butanoic acid], for which the EC50 was above 20000 nM. Next, `O=C(O)CCCOc1c(F)cc(-c2cccnc2N2CCOCC2)cc1F` [Example 111, 4-[2,6-difluoro-4-(2-morpholino-3-pyridyl)phenoxy]butanoic acid]: above 20000 nM; `O=C(O)CCCOc1c(F)cc(-c2cccnc2NCC2CCOCC2)cc1F` [Example 112, 4-[2,6-difluoro-4-[2-(tetrahydropyran-4-ylmethylamino)-3-pyridyl]phenoxy]butanoic acid]: above 20000 nM; `C[C@@H](CCC(=O)O)Oc1c(F)cc(-c2cccnc2SC2CCC2)cc1F` [Example 114, (4S)-4-[4-(2-cyclobutylsulfanyl-3-pyridyl)-2,6-difluoro-phenoxy]pentanoic acid]: below 200 nM.

As to `C[C@H](CCC(=O)O)Oc1c(F)cc(-c2cccc(OC3CCC3)c2)cc1F` [Example 116, (4R)-4-[4-[3-(cyclobutoxy)phenyl]-2,6-difluoro-phenoxy]pentanoic acid], the EC50 was below 200 nM.

Consider `C[C@H](CCC(=O)O)Oc1c(F)cc(-c2cccc(Oc3ccccc3)c2)cc1F` [Example 118, (4R)-4-[2,6-difluoro-4-(3-phenoxyphenyl)phenoxy]pentanoic acid], for which the EC50 is below 200 nM. Next, `CC(C)Oc1cccc(-c2cc(F)c(SCC3(CC(=O)O)CC3)c(F)c2)c1` [Example 121, [1-(3,5-difluoro-3′-isopropoxy-biphenyl-4-ylsulfanylmethyl)-cyclopropyl]-acetic acid]: below 200 nM; `O=C(O)CCCSc1c(F)cc(-c2cccc(OC3CCCC3)c2)cc1F` [Example 122, 4-(3′-cyclopentyloxy-3,5-difluoro-biphenyl-4-ylsulfanyl)-butyric acid]: below 200 nM. Next, `O=C(O)CCCSc1ccc(-c2cccnc2OC2CCCC2)cc1` [Example 123, 4-[4-(2-cyclopentyloxy-pyridin-3-yl)-phenylsulfanyl]-butyric acid]: below 200 nM; `O=C(O)CCCSc1ccc(-c2cccnc2OCC2CC2)cc1` [Example 124, 4-[4-(2-cyclopropylmethoxy-pyridin-3-yl)-phenylsulfanyl]-butyric acid]: 200 to 2000 nM. With `O=C(O)CCCSc1ccc(-c2cccc(Oc3ccccc3)c2)cc1` [Example 125, 4-(3′-phenoxy-biphenyl-4-ylsulfanyl)-butyric acid], the EC50 is below 200 nM.

As for `O=C(O)CCCSc1ccc(-c2cccc(OC3CCCC3)c2)cc1` [Example 126, 4-(3′-cyclopentyloxy-biphenyl-4-ylsulfanyl)-butyric acid], the EC50 is below 200 nM.

For `CCCOc1cccc(-c2ccc(SCCCC(=O)O)cc2)c1` [Example 127, 4-(3′-propoxy-biphenyl-4-ylsulfanyl)-butyric acid], the concentration for a half-maximal effect (EC50) is below 200 nM. Next, `O=C(O)CCCSc1ccc(-c2cccc(OC3CCC3)n2)cc1` [Example 128, 4-[4-(6-cyclobutoxy-pyridin-2-yl)-phenylsulfanyl]-butyric acid]: below 200 nM. Next, `O=C(O)CCCSc1ccc(-c2cccc(OC3CCCC3)n2)cc1` [Example 129, 4-[4-(6-cyclopentyloxy-pyridin-2-yl)-phenylsulfanyl]-butyric acid]: 200 to 2000 nM.

Consider `CC(C)Oc1cccc(-c2ccc(SCCCC(=O)O)cc2)n1` [Example 130, 4-[4-(6-isopropoxy-pyridin-2-yl)-phenylsulfanyl]-butyric acid], for which the EC50 is below 200 nM. The result for `CC(C)Oc1ncccc1-c1ccc(SCCCC(=O)O)cc1` [Example 131, 4-[4-(2-isopropoxy-pyridin-3-yl)-phenylsulfanyl]-butyric acid] reads 200 to 2000 nM; that for `CCCOc1cccc(-c2ccc(SCCCC(=O)O)cc2)n1` [Example 132, 4-[4-(6-propoxy-pyridin-2-yl)-phenylsulfanyl]-butyric acid], below 200 nM. The result for `O=C(O)CCCSc1ccc(-c2cccc(SC3CCCC3)n2)cc1` [Example 133, 4-[4-(6-cyclopentylsulfanyl-pyridin-2-yl)-phenylsulfanyl]-butyric acid] reads 200 to 2000 nM; that for `O=C(O)CCCSc1c(F)cc(-c2cccc(OC3CCC3)c2)cc1F` [Example 134, 4-(3′-cyclobutoxy-3,5-difluoro-biphenyl-4-ylsulfanyl)-butyric acid], below 200 nM. Next, `CCCOc1cccc(-c2cc(F)c(SCCCC(=O)O)c(F)c2)n1` [Example 136, 4-[2,6-difluoro-4-(6-propoxy-pyridin-2-yl)-phenylsulfanyl]-butyric acid]: below 200 nM.

Take `CC(C)Oc1cccc(-c2cc(F)c(SCCCC(=O)O)c(F)c2)n1` [Example 137, 4-[2,6-difluoro-4-(6-isopropoxy-pyridin-2-yl)-phenylsulfanyl]-butyric acid]: the EC50 is below 200 nM. The result for `CC(C)Oc1ncccc1-c1cc(F)c(SCCCC(=O)O)c(F)c1` [Example 138, 4-[2,6-difluoro-4-(2-isopropoxy-pyridin-3-yl)-phenylsulfanyl]-butyric acid] reads below 200 nM. With `CCCOc1ncccc1-c1cc(F)c(SCCCC(=O)O)c(F)c1` [Example 139, 4-[2,6-difluoro-4-(2-propoxy-pyridin-3-yl)-phenylsulfanyl]-butyric acid], the EC50 was below 200 nM. The result for `CC(C)Sc1cccc(-c2cc(F)c(SCCCC(=O)O)c(F)c2)n1` [Example 140, 4-[2,6-difluoro-4-(6-isopropylsulfanyl-pyridin-2-yl)-phenylsulfanyl]-butyric acid] reads below 200 nM; that for `CCCSc1cccc(-c2cc(F)c(SCCCC(=O)O)c(F)c2)n1` [Example 141, 4-[2,6-difluoro-4-(6-propylsulfanyl-pyridin-2-yl)-phenylsulfanyl]-butyric acid], below 200 nM; that for `O=C(O)CCCSc1c(F)cc(-c2cccnc2SC2CCC2)cc1F` [Example 142, 4-[4-(2-cyclobutylsulfanyl-pyridin-3-yl)-2,6-difluoro-phenylsulfanyl]-butyric acid], below 200 nM.
